Columns and labels:
JAK3 = molecular target: T1, JAK3 (Homo sapiens, UniProt P52333); assay: Cell-free tyrosine kinase inhibition assay JAK3; type: biochemical
T1 sequence (P52333 1-1124): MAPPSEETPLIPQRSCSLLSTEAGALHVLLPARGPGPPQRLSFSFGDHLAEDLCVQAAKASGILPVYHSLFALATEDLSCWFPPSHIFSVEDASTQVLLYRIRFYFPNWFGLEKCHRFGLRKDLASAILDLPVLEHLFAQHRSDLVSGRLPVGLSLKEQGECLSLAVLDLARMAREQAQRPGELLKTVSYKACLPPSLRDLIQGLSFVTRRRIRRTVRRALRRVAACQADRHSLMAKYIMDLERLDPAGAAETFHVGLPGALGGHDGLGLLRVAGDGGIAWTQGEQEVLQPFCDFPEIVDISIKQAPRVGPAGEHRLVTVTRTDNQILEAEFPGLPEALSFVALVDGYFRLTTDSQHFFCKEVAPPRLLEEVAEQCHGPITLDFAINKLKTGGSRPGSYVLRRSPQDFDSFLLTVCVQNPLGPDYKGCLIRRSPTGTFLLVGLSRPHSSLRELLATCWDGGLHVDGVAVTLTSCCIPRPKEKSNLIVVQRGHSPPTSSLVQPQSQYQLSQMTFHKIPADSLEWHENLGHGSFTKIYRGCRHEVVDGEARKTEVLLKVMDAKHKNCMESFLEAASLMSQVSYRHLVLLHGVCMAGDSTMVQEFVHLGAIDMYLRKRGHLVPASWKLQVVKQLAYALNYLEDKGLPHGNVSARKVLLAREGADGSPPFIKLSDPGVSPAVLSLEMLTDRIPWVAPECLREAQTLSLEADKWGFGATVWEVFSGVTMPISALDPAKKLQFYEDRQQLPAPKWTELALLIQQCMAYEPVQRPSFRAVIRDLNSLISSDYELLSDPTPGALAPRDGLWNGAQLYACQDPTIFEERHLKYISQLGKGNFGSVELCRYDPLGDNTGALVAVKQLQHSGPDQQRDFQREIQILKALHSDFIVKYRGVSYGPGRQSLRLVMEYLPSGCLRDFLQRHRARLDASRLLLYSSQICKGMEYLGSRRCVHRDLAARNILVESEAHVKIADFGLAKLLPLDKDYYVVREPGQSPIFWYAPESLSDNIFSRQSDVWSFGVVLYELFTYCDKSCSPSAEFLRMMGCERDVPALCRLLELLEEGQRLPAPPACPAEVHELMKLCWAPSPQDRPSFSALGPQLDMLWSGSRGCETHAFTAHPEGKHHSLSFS

[1] = molecular target: EGF-Receptor Kinase (EGFR) (Homo sapiens, UniProt P00533); assay: Cell-free tyrosine kinase inhibition assay EGFR; type: biochemical
[2] = tested on: B18.2, NALM-6 and ALL-1 cells; assay: Chemosensitization to ceramide and vincristine, DNA fragmentation; type: cell-based; details: 100 μM plus VCR 10 ng/ml or C2-CER 10 μM, 24 hours
BTK in B18.2 cells = BTK in B18.2 cells (Homo sapiens, UniProt Q06187); assay: Cellular BTK activity, immune complex kinase assay after treatment of cells; type: cell-based; details: treatment of B18.2 cells
Description: PIU: Phosphoimager units; DSU, densitometric scanning units; CON, control.
Polyclonal antibodies to BTK were generated by immunization of rabbits with glutathione S-transferase (GST) fusion proteins (Pharmacia Biotech Inc.) containing the first 150 amino acids of BTK. The monoclonal anti-Fas antibody (F22120) was obtained from the Transduction Laboratories, Inc. (Lexington, Ky.). […] Following electrophoresis, kinase gels were dried onto Whatman 3M filter paper and subjected to phosphoimaging on a Molecular Imager (Bio-Rad, Hercules, Calif.) as well as autoradiography on film. Similarly, all chemiluminescent BTK Western blots were subjected to three dimesional densitometric scanning using the Molecular Imager and Imaging Densitometer using the Molecular Analyst/Macontosh version 2.1 software following the specifications of the manufacturer (Bio-Rad). For each drug concentration, a BTK kinase activity index was determined by comparing the ratios of the kinase activity in phosphorimager units (PIU) and density of the protein bands in densitometric scanning units (DSU) to those of the baseline sample and using the formula: Activity Index=[PIU of kinase band/DSU of BTK protein band]test sample: [PIU of kinase band/DSU of BTK protein band]baseline control sample. […]

[3] = tested on: OVA-sensitized and challenged mice; assay: Eosinophil infiltration in bronchoalveolar lavage of OVA challenged mice; type: in vivo, mouse; details: ovalbumin sensitized and challenged mice, pretreatment
Description: FIG. 29: Inhibition of eosinophil infiltration in bronchoalveolar lavage of OVA challenged mice by LFM-A8. The lungs of the mice were lavaged after methacholine challenge and eosinophil numbers were counted. The results of eosinophils are expressed as percent of total cell counts. The data points represent the mean±SEM values obtained from 5-6 mice. *P<0.05 compared to vehicle-treated control, as determined by Student's t test.
Assessment of Eosinophil Infiltration. After airway responsiveness measurements, lungs were lavaged thoroughly with 1 ml saline. The lavage fluid was centrifuged and the supernatant was removed. The cell pellet was resuspended in saline containing 0.1% BSA to give a final cell concentration of 0.1×10^6/ml. Cytospin smears made from the cell suspension were stained with Wright-Giemsa and the number of eosinophils were counted.

[4] = concentrations as high as 100 μg/ml (~278 μM)

Chain of EGF-Receptor Kinase (EGFR) (P00533 25-1210, species assumed): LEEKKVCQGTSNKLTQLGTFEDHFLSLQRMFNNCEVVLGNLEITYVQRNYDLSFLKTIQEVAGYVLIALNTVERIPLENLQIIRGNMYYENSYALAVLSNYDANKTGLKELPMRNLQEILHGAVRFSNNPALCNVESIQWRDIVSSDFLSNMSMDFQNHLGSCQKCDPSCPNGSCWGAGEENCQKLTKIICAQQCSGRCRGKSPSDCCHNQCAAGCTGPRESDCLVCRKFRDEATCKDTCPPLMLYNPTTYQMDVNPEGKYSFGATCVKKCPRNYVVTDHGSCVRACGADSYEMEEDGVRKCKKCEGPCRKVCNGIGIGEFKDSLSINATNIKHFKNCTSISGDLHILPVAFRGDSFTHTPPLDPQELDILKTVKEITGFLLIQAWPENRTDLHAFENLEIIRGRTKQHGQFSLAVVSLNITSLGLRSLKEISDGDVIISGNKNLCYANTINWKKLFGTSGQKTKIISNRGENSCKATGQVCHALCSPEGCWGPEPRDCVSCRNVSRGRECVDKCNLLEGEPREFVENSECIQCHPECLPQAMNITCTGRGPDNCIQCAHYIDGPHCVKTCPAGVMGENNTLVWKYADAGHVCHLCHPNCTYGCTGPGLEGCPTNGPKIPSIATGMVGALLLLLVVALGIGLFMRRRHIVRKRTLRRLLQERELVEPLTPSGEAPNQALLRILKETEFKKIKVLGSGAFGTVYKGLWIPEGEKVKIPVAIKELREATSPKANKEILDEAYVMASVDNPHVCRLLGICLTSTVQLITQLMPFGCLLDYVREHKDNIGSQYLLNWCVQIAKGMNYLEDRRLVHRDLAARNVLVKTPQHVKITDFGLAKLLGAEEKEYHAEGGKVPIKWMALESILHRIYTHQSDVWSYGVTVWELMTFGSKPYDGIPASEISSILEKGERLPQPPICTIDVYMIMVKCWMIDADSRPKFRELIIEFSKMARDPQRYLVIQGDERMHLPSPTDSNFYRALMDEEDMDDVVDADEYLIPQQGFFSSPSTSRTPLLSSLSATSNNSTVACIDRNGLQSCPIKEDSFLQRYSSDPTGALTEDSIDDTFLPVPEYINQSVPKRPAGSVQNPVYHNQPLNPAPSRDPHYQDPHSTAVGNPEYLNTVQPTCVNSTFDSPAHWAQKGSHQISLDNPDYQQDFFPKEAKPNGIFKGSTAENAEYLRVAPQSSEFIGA
Chain of BTK in B18.2 cells (Q06187 whole entry): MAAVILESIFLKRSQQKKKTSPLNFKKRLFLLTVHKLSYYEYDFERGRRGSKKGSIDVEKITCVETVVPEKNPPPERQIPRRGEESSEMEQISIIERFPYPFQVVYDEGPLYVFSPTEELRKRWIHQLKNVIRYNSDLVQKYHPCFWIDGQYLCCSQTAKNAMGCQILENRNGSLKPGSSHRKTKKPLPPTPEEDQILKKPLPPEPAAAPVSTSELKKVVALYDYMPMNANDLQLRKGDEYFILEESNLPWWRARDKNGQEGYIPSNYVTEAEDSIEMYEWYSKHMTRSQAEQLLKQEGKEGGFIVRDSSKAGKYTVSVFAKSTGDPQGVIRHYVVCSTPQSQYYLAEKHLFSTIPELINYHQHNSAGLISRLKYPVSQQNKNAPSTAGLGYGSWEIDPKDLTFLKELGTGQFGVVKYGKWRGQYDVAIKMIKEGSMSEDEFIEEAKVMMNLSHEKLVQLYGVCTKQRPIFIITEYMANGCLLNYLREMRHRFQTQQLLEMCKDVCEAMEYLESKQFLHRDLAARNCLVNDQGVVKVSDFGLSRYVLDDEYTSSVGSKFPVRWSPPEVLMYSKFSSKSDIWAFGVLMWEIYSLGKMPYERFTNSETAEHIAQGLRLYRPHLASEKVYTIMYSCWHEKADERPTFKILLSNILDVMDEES

melting point [°C]	SMILES	IC50 (JAK3) [µM]	effect on enzymatic activity of JAK3 (JAK3; [4])	IC50 ([1]; EGFR) [µM]	effect on enzymatic activity of EGFR [1, 4]	sensitivity to ceramide-induced and vincristine-induced apoptosis [2]	cellular BTK activity (BTK in B18.2 cells)	reduction of numbers of eosinophils in BAL fluid [3] [%]
	C/C(O)=C(\C#N)C(=O)Nc1cc(Br)ccc1Br [LFM-A13, α-Cyano-β-hydroxy-β-methyl-N-(2,5-dibromophenyl)-propenamide]	> 278	did not affect the enzymatic activity	> 278	did not affect the enzymatic activity	enhances the sensitivity	dose-dependent inhibition of cellular BTK activity	
182 to 184	CC(O)=C(C#N)C(=O)Nc1cccc(C(F)(F)F)c1 [LFM-A8, α-Cyano-β-hydroxy-β-methyl-N-[3-(trifluoromethyl)phenyl]-propenamide]							80
